Entries after “also recorded” stand apart in the source; their conditions may differ.

The subject of assay [1] is naloxone-induced flush in morphine-dependent ovariectomized rats. The assay can be described thus: Morphine-dependent rat model: naloxone-induced flush, tail skin temperature (TST). Type of assay: in vivo. As to the method:
(§1) Dosing: All doses were prepared based on mg/kg. All compounds were administered intraperitoneally and dissolved and used at the following dosages: SSR149415 (V1b receptor antagonist, 3.0-30 mg/kg was dissolved in 5% DMSO in 5% Cremophor EL). SSR49059 (V1a receptor antagonist, 30 mg/kg was dissolved 10% DMSO/sterile H2O) and VPA-985 (V2 receptor antagonist, 30 mg/kg was dissolved 10% DMSO/sterile H2O). Naloxone (1.0 mg/kg was dissolved in sterile H2O) was injected subcutaneously.
Animals: Ovariectomized Sprague-Dawley rats (180-220 g) were obtained from a commercial vendor (Taconic, Germantown, N.Y.) and individually housed under 12 hours light/dark cycle in a room maintained at 25° C. Animals were provided with standard rat chow and water ad libitum.
Morphine-dependent model: Ovariectomized rats were injected once daily for 8-9 days with vehicle to minimize stress responses and then administered compound(s) on test day (10 rats/group). On day 4 of vehicle dosing, morphine dependence was induced by sc implantation of two slow-release morphine pellets (75 mg/pellet) in the dorsal scapular region. This model is based upon an established morphine-dependent naloxone-induced flush paradigm that is reversible by estrogen treatment (Katovich et al., Proceedings of the Society for Experimental Biology & Medicine, 1990. 193(2): p. 129-35). Four to six days after implantation, morphine withdrawal was induced with an opioid antagonist (naloxone) that causes a transient increase in TST. In a typical experiment, rats were administered their final dose of test compound 40 minutes prior to naloxone injection. Rats were mildly sedated with ketamine and a thermistor connected to a MacLab data acquisition system (CB Sciences, Dover, N.H.) was taped to the base of the tail. Tail skin temperature was then monitored continuously for 10 minutes to establish a baseline temperature. Naloxone was subsequently administered and TST was measured for an additional […] (total recording time 95 min).
Statistical analysis: To analyze changes in TST induced by naloxone in morphine-dependent rats, all data was analyzed using a two factors repeated measure. The factors were “treatment” and “time” (repeated). The model was fit to test whether there were significant differences in the responses between treatment groups. The data was analyzed at 5 minute intervals from 20 minutes (−20) prior to the naloxone administration (referred to as time 0) to 60 minutes after the treatment. Multiple comparisons (LSD p-values) among the treatment groups at each time point were used for the analysis, however, the changes in TST is greatest at 15 minutes post naloxone administration and this time point provides the best indicator of flush abatement. When appropriate estimation of the ED50 value was calculated. The ED50 value was determined using a log scale and the line was fit between the maximal (15 minutes post naloxone ΔTST) and minimal response (average baseline temperature prior to naloxone). The ED50 value is reported as the dose of test compound that abates 50% of the naloxone-induced flush.
Method used as described in the general method section under morphine-dependent rat model with the following exceptions: in the morphine-dependent model rats were injected intraperitoneally with vehicle (5% DMSO in 5% Cremophor EL) or SSR149415 (V1b receptor antagonist) which may be prepared as described in WO 01/55134, dissolved in 5% DMSO in 5% Cremophor EL and administered at 3.0 and 30 mg/kg 40 minutes prior to naloxone injection (FIGS. 1A and 1B). […] At the highest dose (30 mg/kg) tested antagonism of the V1b receptor produced a 60% abatement of the naloxone-induced flush. […]

For assay [2], the system named is tail skin temperature in ovariectomized rats. Description: OVX-induced thermoregulatory dysfunction telemetry model (TST). The following applies: 30 mg/kg intraperitoneal, 30 minutes prior to onset of dark cycle. Type of assay: in vivo, rat. As to the method:
as §1
Animals: Ovariectomized Sprague-Dawley rats (180-220 g) were obtained from a commercial vendor (Taconic, Germantown, N.Y.) and individually housed under 12 hours light/dark cycle in a room maintained at 25° C. […]
OVX-induced thermoregulatory dysfunction telemetry model: To determine the effect that test compounds had on thermoregulation, TST was monitored in ovariectomized rats by telemetry (6-7 rats/group). […] After a 7 day recovery period rats were administered a vehicle injection and TST monitored continuously for 12 hours (Day 1). Twenty-four hours later rats were administered either vehicle or test compound and TST monitored continuously for 12 hours (Day 2). […]
To analyze changes in TST induced by test compounds in the thermoregulatory dysfunction model a 2-day paradigm was used. […] On Day 2, test compound is administered and TST readings are recorded every 30 minutes as described above. […]

[3] abbreviates: 30 mg/kg intraperitoneal, 15 minutes post-naloxone.

Regarding `COc1ccc(S(=O)(=O)N2c3ccc(Cl)cc3[C@](O)(c3ccccc3Cl)[C@@H]2C(=O)N2CCC[C@H]2C(N)=O)cc1OC` [SR49059], the “effect on naloxone-induced flush at maximal flush (ΔTST)” value (from here on “effect … (ΔTST)”) in assay [1] (setting [3]) was “lack efficacy in attenuating the naloxone-induced flush; also recorded: failed to abate the naloxone-induced flush”.
With `COc1ccc(S(=O)(=O)N2C(=O)C(c3ccccc3OC)(N3C[C@H](O)C[C@H]3C(=O)N(C)C)c3cc(Cl)ccc32)c(OC)c1` (stereo partly drawn) [SSR149415, (2S,4R)-1-[5-Chloro-1-[(2,4-dimethoxyphenyl)-sulfonyl]-3-(2-methoxy-phenyl)-2-oxo-2,3-dihydro-1H-indol-3-yl]-4-hydroxy-N,N-dimethyl-2-pyrrolidine carboxamide], the “effect … (ΔTST)” value in assay [1] (3.0 mg/kg intraperitoneal, 15 minutes post-naloxone) is “no effect”; in assay [1] (setting [3]) it was “significantly and dose-dependently abated the naloxone-induced flush”. Besides, the “abatement of the naloxone-induced flush” value in assay [1] (30 mg/kg intraperitoneal (highest dose), 40 minutes prior to naloxone) was found to be 60%. Besides, the “changes in TST over time, naloxone-induced flush” value in assay [1] (3.0 and 30 mg/kg intraperitoneal, 40 minutes prior to naloxone) is recorded as “dose-dependently abates the naloxone-induced flush”. Further, the 50% effective dose (ED50) – broadly, the dose that gives a 50% effect, or the effect in half of the subjects – in assay [1] (Rattus norvegicus, ip, intraperitoneal, 40 minutes prior to naloxone, maximal flush, 15 minutes post-naloxone, read-out: ED50 value, abatement of naloxone-induced flush) was 12.1 mg/kg. For the same compound, the “change in TST (ΔTST) relative to vehicle, active phase” value in assay [2] was “significant decrease in ΔTST; also recorded: able to restore normal thermoregulation; also recorded: significantly and transiently decreased TST”.
For the compound `Cc1ccc(F)cc1C(=O)Nc1ccc(C(=O)N2Cc3cccn3Cc3ccccc32)c(Cl)c1` [VPA-985], the “effect … (ΔTST)” value in assay [1] (setting [3]) is on record as “lack efficacy in attenuating the naloxone-induced flush; also recorded: failed to abate the naloxone-induced flush”.

The values are drawn from patent US20050165082A1, “Methods of treating vasomotor symptoms” (Wyeth, priority 2003, published 2005).
